From patent US9497963B2, “Methods and compositions for control of gypsy moth, Lymantria dispar” (Simon Fraser University, priority 2008, dated 2016)
Read-outs that look alike come from different tables or passages of the source.

Tests used:
Parameters in all cases: species or system Lymantria dispar
[1] = test system: male gypsy moth antenna; experiment: Coupled gas chromatographic-electroantennographic detection (GC-EAD); conditions: EAD peak size and shape (sharp/broad)
From the text: In GC-EAD assays, the analyte is processed by gas chromatography (GC). The column effluent is split, such that molecules of each chromatographic peak arrive simultaneously at the flame ionization detector of the GC and at an anectomized but otherwise intact insect antenna as the biological detector. This procedure detects specific compounds in the analyte that elicit an electrical potential from the antenna.
For GC-EAD recordings, an antenna was carefully dislodged from a male moth's head, and the antennal base placed into the opening of a glass capillary electrode (0.58 mm ID×65 mm length) (A-M Systems, Inc., Carlsborg, Wash., USA) filled with saline solution. The tip of the antenna was removed by spring microscissors (Fine Science Tools Inc., North Vancouver, British Columbia, Canada) and then placed into the opening of the recording electrode mounted on a portable micromanipulator and positioned in front of a constant stream of warm air (Praxair Canada Inc., Mississauga, Ontario, Canada) which delivered the GC column eluent. […] Identical retention times of compounds detected by the flame ionization detector of the GC and by the insect antenna allowed assignment of antennal responses to specific compounds in the eluent.

[2] = test system: response of L. dispar antennae to (+)-disparlure; experiment: Competitive electroantennogram (EAG) screen, inhibition of response to (+)-disparlure (Example 4); conditions: Lymantria dispar, means ± S.E.; for inhibition at 0.001 mg: dose 1 μg on cartridge; for inhibition at 0.01 mg: dose 10 μg on cartridge; for inhibition at 0.1 mg: dose 100 μg on cartridge
Method: In this assay, libraries and individual compounds are tested for their ability to inhibit the antennal response to the sex attractant pheromone of the gypsy moth, (7R,8S) 2-methyl-7,8-epoxyoctadecane, also known as (+)-disparlure. The controls consisted of a puff of clean air (negative) or of air passed over a cartridge impregnated with (+)-disparlure (100 ng) (positive). The treatments consisted of 100 ng of (+)-disparlure in combination with a compound or library at 1, 10 or 100 μg, on a cartridge over which the air puff was passed. The small arrows above the trace denote the times where the air was puffed over the antenna.
For some compounds, such as the para Compounds 2c{n}, 2c{n,n} and libraries 3c{n,1-5}, EAG competitive assays were performed to investigate whether the diethers inhibit the response of L. dispar antennae to the main component of the sex attractant pheromone cis-(7R,8S)-epoxy-2-methyloctadecane [(+)-disparlure] (FIG. 4). For EAGs a male moth antenna was mounted and placed in front of a stimulus-delivery glass tubing (160×5 mm ID) with a side orifice (2 mm diam) near (2 cm) the distal opening. The tubing was connected to one port of an apparatus (Stimulus Controller CS-05, Syntech Research and Equipment, NL-1200BM Hilversum, The Netherlands) that generated a constant stream of clean air (300 ml/min). The second port of the apparatus was connected to a Pasteur pipette inserted through the side orifice of the stimulus-delivery tubing. The test stimulus was applied to a disc of Whatman #1 filter paper inside the Pasteur pipette and was discharged through a 0.3-sec pulse of air (600 ml/min) Receptor potentials of the antennae in response to test stimuli were recorded with a Syntech IDAC probe, amplifier and interfaced board, and were analyzed with EAG Syntech Software Version 2.4 (1996) Inhibition (%) was calculated as: % inhibition=(Dd−Ds)/Dd×100 (eq. 1)
Where Dd is the depolarization observed with pure disparlure (corrected for clean air background) and Ds is the depolarization with disparlure+sample. See FIG. 4 for a representative EAG inhibition assay trace.

[3] = test system: male gypsy moth antenna response to pheromone (+)-1; experiment: EAG short-term (STI) and long-term (LTI) inhibition of pheromone signaling (Example 5); conditions: for inhibition at 0.001 mg / inhibition at 0.01 mg / inhibition at 0.1 mg / inhibition at 100 µg, 0.1 mg: Lymantria dispar; for inhibition at 0.001 mg / inhibition at 0.01 mg / inhibition at 0.1 mg / Activity (%): short-term inhibition (STI): negative = enhancement; for inhibition at 0.001 mg / inhibition at 0.01 mg / inhibition at 0.1 mg: read-out: Activity (%): short-term inhibition (STI); for inhibition at 100 µg, 0.1 mg: read-out: Activity (%): long-term inhibition (LTI)
Method: The puffs are numbered i-vi and were: i=air, ii=pure pheromone (+)-disparlure, (+)-1, (100 ng), iii-v=disparlure mixed with the test compound, the latter at three different doses, vi=pure (+)-1. Depolarizations from the resting potential are labeled d; hyperpolarizations seen during the recovery phase after a puff are labeled r. Subscripts refer to the puff number. FIG. 5A. Typical trace for compound 3c{2,3}. FIG. 5B. Typical trace for compound 3a{4,4}.
For other compounds, EAG traces were recorded as follows: a fully dislodged antenna from a male gypsy moth was mounted on the end of a reference electrode (a glass capillary with a silver wire, filled with buffered saline: 5 mM NaH2PO4, 10 mM Na2SO4, 4.5 mM KHCO3, 18 mM MgCl2, 4 mM CaCl2, 6 mM KCl, the pH is adjusted to 6.8 using 5 mM Na2HPO4). The tip of the antenna was severed with microscissors and placed in the recording electrode, which was mounted on a micromanipulator. A constant stream of air, that had been purified (charcoal filter), was blown over the antenna at a rate of 300 mL/min. Test samples were delivered through a stimulus delivery tube with a side opening 2 cm from the distal opening. The proximal end of the delivery tube was connected to a controlled stimulus delivery apparatus (Stimulus controller CS-05 Syntech Research and Equipment, NL 1200BM, Hilversum, The Netherlands). The distal end of the delivery tube pointed at the antenna (1 cm from the antenna). The side opening was connected to a cartridge fashioned from a Pasteur pipette which contained a small filter paper (Whatman No. 1) with the stimulus. These pipette cartridges could be prepared a few days in advance and stored at −80° C. wrapped in Al foil and in sealable plastic bags. Sample cartridges were mounted once they had reached room temperature. The stimulus delivery apparatus delivered a second stream of air (a puff) through the Pasteur pipette at a velocity of 600 mL/min, at a specified point in time, for 0.3 s. Receptor potentials of the antennae in response to test stimuli were recorded with a Syntech IDAC probe, amplifier and interfaced board, and were analyzed with EAG Syntech Software Version 2.4 (1996). See FIG. 4 for a representative EAG trace. The EAG traces were evaluated as follows (see FIG. 5).
The net depolarizations, d(net) (in mV), of puffs ii-vi,d(sample), (corrected for the depolarization with clean air, d(air)) d(net)=d(sample)−d(air) (Eq. 1)
The percentage short-term inhibition for each compound (STI(compound)) of puffs iii-v, relative to the first pure pheromone puff (ii) STI(compound)=100×(d(net)(ii)−d(net)(compound))/d(net)(ii) (Eq. 2)
c) the percentage long-term inhibition for each compound (LTI(compound)) of the pure pheromone puff that followed the last mixed puff (vi) relative to the first pure pheromone puff (ii) LTI(compound)=100×(d(net)(ii)−d(net)(vi))/d(net)(ii) (Eq. 3)
The compounds we tested gave weak or no olfactory responses by themselves in electroantennogram (EAG) experiments. The EAG trace reflects the change in the potential across the antenna when an air puff with an odorant is passed over the antenna. To understand the agonistic or antagonistic effect of the compounds on pheromone responses by male moth antennae, four types of EAG experiment were conducted. First, the response of the antenna elicited by a stimulus of pure (+)-1 was compared to the responses elicited by blends of (+)-1 with the test compound (FIG. 5). […] This effect was termed short-term inhibition (STI). […] Second, the time decay and dose responses for LTI activities were studied. Third, the strongest inhibitors were tested for their ability to cause LTI by themselves.
This experiment explored the agonistic or antagonistic activity of the synthetic aromatic compounds (Scheme 1 and eugenol and alkyl eugenols) with the gypsy moth pheromone (+)-1. […]

[4] = test system: L. dispar PBP 1; experiment: Pheromone-binding protein (PBP) ligand binding assay, PBP1; conditions: member tested within library 3c{4, 1-5}
Method: A. The protein and ligand are incubated in buffer overnight. B. For half of the incubation mixture, the free ligand (L) is separated from the protein-bound ligand (P.L) by size-exclusion chromatography on P2 Gel (BioRad, exclusion limit 2000 Da). The protein elutes from the small column bed, with its ligand bound (see Examples and […] et al. 2000; Staddon and Everton 1980), while the free ligand is retained on the column ([…] et al. 2000). C. […] The extract from the filtrate (B) contains the protein-bound ligand and the extract from the incubation mixture (A) contains all the ligand (bound and free) present in the aqueous phase. The extracts are analyzed by GC-MS, to obtain values for total ligand in solution (L+P.L) and for protein-bound ligand (P.L). These can then be used to calculate % bound (Table 3). These assays were performed as described in FIG. 3 and as follows: L. dispar PBP 1 or PBP 2 was incubated with the test compound or mini-library. The PBP and the ligand(s) (L) were left to equilibrate (eq 2) overnight. The non-bound ligand was then separated from the protein-bound material (PBP.L) by size-exclusion chromatography. By determining the total ligand in solution at equilibrium (eq. 3) and the protein-bound ligand, it is possible to estimate the percentage of ligand bound to the protein at equilibrium (eq. 4). […] This binding assay has been validated extensively in previous studies ([…] et al. 2000). The components of each mini-library separated cleanly by GC, so it was possible to monitor binding of individual components. PBP+L⇄PBP·L (eq. 2) [L]tot=[L]+[PBP·L] (eq. 3) % bound=100×[PBP·L]/[L]tot (eq. 4) Results: The members of each mini-library separated cleanly by GC, therefore it was possible to monitor binding of individual members to PBP1 or PBP2, the two known PBPs in the gypsy moth, by extraction from the aqueous incubation mixture, followed by GC analysis of the extract (FIG. 3).

[5] = mixed plume (+)-1 100 ng + compound 1 μg, mean ± S.E.
[6] = mixed plume (+)-1 100 ng + compound 10 μg, mean ± S.E.
[7] = mixed plume (+)-1 100 ng + compound 100 μg (puff v), mean ± S.E.
[8] = pure (+)-1 100 ng plume following mixed plume with 100 μg compound, mean ± S.E.

| SMILES | GC-EAD activity [1] | inhibition at 0.001 mg [2] [%] | inhibition at 0.01 mg [2] [%] | inhibition at 0.1 mg [2] [%] | inhibition at 0.001 mg [3, 5] [%] | inhibition at 0.01 mg [3, 6] [%] | inhibition at 0.1 mg [3, 7] [%] | inhibition at 100 µg, 0.1 mg [3, 8] [%] | short-term effect on antennal pheromone response (in words) [3] | PBP1 (% bound) [4] [%] | Activity (%): short-term inhibition (STI) [3, 5] | Activity (%): short-term inhibition (STI) [3, 6] | Activity (%): short-term inhibition (STI) [3, 7] | Activity (%): long-term inhibition (LTI) [3, 8] | inhibition at 100 µg, 0.1 mg [3] [%] |
| --- | --- | --- | --- | --- | --- | --- | --- | --- | --- | --- | --- | --- | --- | --- | --- |
| COc1ccc(O)cc1 [2c{1}, 4-Methoxy phenol] | None | 10 ± 5 | 55 ± 11 | 43 ± 12 | 8 ± 12 | 21 ± 20 | -16 ± 25 | 10 ± 7 |  |  |  |  |  |  |  |
| CCOc1ccc(O)cc1 [2c{2}, 4-Ethoxy phenol] | None | 49 ± 10 | 64 ± 9 | 45 ± 8 | -3 ± 4 | 55 ± 5 | 47 ± 5 | 7 ± 4 |  |  |  |  |  |  |  |
| CCCOc1ccc(O)cc1 [2c{3}, 4-Propoxy phenol] | None | 17 ± 14 | 43 ± 14 | 35 ± 12 | 7 ± 31 | 29 ± 34 | 38 ± 12 | -8 ± 7 |  |  |  |  |  |  |  |
| CC(C)CCOc1ccc(O)cc1 [2c{5}, 4-(3-Methyl-butyloxy) phenol] | None | 38 ± 17 | 38 ± 27 | 19 ± 20 | 47 ± 14 | 77 ± 7 | 49 ± 7 | 2 ± 4 | antagonistic |  |  |  |  |  |  |
| C=CCOc1cccc(OCC=C)c1 [3b{6,6}, 1,3-Diallyloxy benzene] | None |  |  |  | 11 ± 18 | 10 ± 22 | -34 ± 41 | 33 ± 12 |  |  |  |  |  |  |  |
| CCCCOc1ccc(OC)cc1 [3c{1,4}, 1-butoxy-4-methoxy benzene] | None |  |  |  |  |  |  |  |  | 20 ± 0.4 |  |  |  |  |  |
| C=CCOc1ccc(OCCC)cc1 [3c{3,6}, 1-allyloxy-4-propoxybenzene] | + broad |  |  |  | -57 ± 46 | -114 ± 51 | -168 ± 76 | 39 ± 15 |  |  |  |  |  |  |  |
| C=CCOc1ccc(OCC=C)cc1 [3c{6,6}, 1,4-Diallyloxy benzene] | Trace |  |  |  | -6 ± 10 | 45 ± 6 | 41 ± 8 | 4 ± 6 |  |  |  |  |  |  |  |
| C=CCc1ccc(OCCCC)c(OC)c1 [Bu eugenol] | None |  |  |  |  |  |  |  |  |  | 39 ± 17 (6) % | −68 ± 29 (6) % | −116 ± 24 (6) % | 7 ± 4 (6) % |  |
| C=CCc1ccc(OCC)c(OC)c1 [Et eugenol] | None |  |  |  | 3 ± 27 | 19 ± 18 | -121 ± 15 | 20 ± 3 |  |  |  |  |  |  |  |
| C=CCc1ccc(O)c(OC)c1 [eugenol, 2-methoxy-4-(2-propenyl) phenol, reference compound] | None |  |  |  |  |  |  |  |  |  |  |  |  |  | 14 ± 10 |
| C=CCc1ccc(OCCC(C)C)c(OC)c1 [iPent eugenol] | None |  |  |  |  |  |  |  |  |  | 11 ± 33 (6) % | −98 ± 26 (6) % | −106 ± 24 (6) % | 5 ± 8 (6) % |  |
